Values after ≈ are worked out from the molar mass of the structure shown. Active and inactive are the calls of the source. No cut-off for these calls is given here.
What was measured:
Escherichia coli = assay: Antimicrobial activity against Escherichia coli by two fold serial dilution method; assay type: functional
Bacillus cereus = assay: Antimicrobial activity against Bacillus cereus by two fold serial dilution method; assay type: functional
Staphylococcus aureus = assay: Antimicrobial activity against Staphylococcus aureus by two fold serial dilution method; assay type: functional
Aspergillus fumigatus = assay: Antimicrobial activity against Aspergillus fumigatus 293 by two fold serial dilution method; assay type: functional; conditions: Af293
[1] = test system: Chromobacterium violaceum; assay: Antiquorum-sensing activity against Chromobacterium violaceum ATCC 12472 assessed as reduction in violacein production at 5000 ug/ml a=; assay type: functional
HepG2 = assay: Cytotoxicity in human HepG2 cells assessed as reduction in cell viability by MTT assay; assay type: functional, cell-based
HCT-116 = assay: Cytotoxicity in human HCT116 cells assessed as reduction in cell viability by MTT assay; assay type: functional, cell-based
MCF7 = assay: Cytotoxicity in human MCF7 cells assessed as reduction in cell viability by MTT assay; assay type: functional, cell-based
Calf thymus DNA = assay: Binding affinity to calf thymus DNA by TLC plate based assay; assay type: nucleic-acid assay; conditions: Bos taurus
Ehrlich [2] = assay: Antitumor activity against mouse EAC cells implanted in Swiss mouse assessed as mouse survival time at 0.5 mg/mouse dosed for 9 days starting 1 day after tumor cell implantation (reference value: 14.5 days); assay type: functional
Ehrlich [3] = assay: Antitumor activity against mouse EAC cells implanted in Swiss mouse assessed as increase in life span at 0.5 mg/mouse dosed for 9 days starting 1 day after tumor cell implantation relative to untreated control; assay type: functional
Ehrlich [4] = assay: Antitumor activity against mouse EAC cells implanted in Swiss mouse assessed as tumor volume at 0.5 mg/mouse dosed for 9 days starting 1 day after tumor cell implantation (reference value: 9.85 ml); assay type: functional
Ehrlich [5] = assay: Antitumor activity against mouse EAC cells implanted in Swiss mouse assessed as viable cell count per 100 ul at 0.5 mg/mouse dosed for 9 days starting 1 day after tumor cell implantation (reference value: 83.2 x 10^6/100 ul); assay type: functional
Mus musculus [6] = assay: Toxicity in mouse EAC cells implanted Swiss mouse assessed as hemoglobin level at 0.5 mg/mouse dosed for 9 days starting 1 day after tumor cell implantation (reference value: 8.15 g/dl); assay type: organism-based; conditions: in vivo
Mus musculus [7] = assay: Toxicity in mouse EAC cells implanted Swiss mouse assessed as RBC count at 0.5 mg/mouse dosed for 9 days starting 1 day after tumor cell implantation (reference value: 3.69 10^6/mm3)); assay type: organism-based; conditions: in vivo
Mus musculus [8] = assay: Toxicity in mouse EAC cells implanted Swiss mouse assessed as WBC count at 0.5 mg/mouse dosed for 9 days starting 1 day after tumor cell implantation (reference value: 23.96 10^3/mm3)); assay type: organism-based; conditions: in vivo
WI-38 = assay: Cytotoxicity in human WI38 cells assessed as reduction in cell viability by MTT assay; assay type: cell-based

Compound	MIC (Escherichia coli) [µg/mL]	MIC (Bacillus cereus) [µg/mL]	MIC (Staphylococcus aureus) [µg/mL]	MIC (Aspergillus fumigatus) [µg/mL]	diameter of the inhibition zone (DIZ) [1] [mm]	IC50 (HepG2) [µM]	IC50 (HCT-116) [µM]	IC50 (MCF7) [µM]	Activity (Calf thymus DNA)	MST (Ehrlich [2]) [days]	ILS (Ehrlich [3]) [%]	Activity (Ehrlich [4]) [mL]	Activity (Ehrlich [5]) [×10⁶ No_unit]	Activity (Mus musculus [6]) [g/dL]	Activity (Mus musculus [7]) [×10⁶ /mm3]	Activity (Mus musculus [8]) [×10³ /mm3]	IC50 (WI-38) [µM]
O=[N+]([O-])c1ccc2[nH]c(CNc3c([N+](=O)[O-])ccc4ncccc34)nc2c1	1250 (≈ 3.43 mM)	312 (≈ 0.858 mM)	2500 (≈ 6.86 mM)	2500 (≈ 6.86 mM)	4	265	256	274	Active	–	–	–	–	–	–	–	–
CC1(C)S[C@@H]2[C@H](NC(=O)[C@H](N)c3ccccc3)C(=O)N2[C@H]1C(=O)O [AMPICILLIN]	19.5 (≈ 0.0559 mM)	1250 (≈ 3.58 mM)	312 (≈ 0.894 mM)	–	–	–	–	–	–	–	–	–	–	–	–	–	–
O=[N+]([O-])c1ccc2[nH]c(CN3CCN(c4ccc(F)cc4)CC3)nc2c1	2500 (≈ 7.03 mM)	2500 (≈ 7.03 mM)	1250 (≈ 3.52 mM)	2500 (≈ 7.03 mM)	<2	22	14	15	Active	44.5	206.98	2.32	23.54	13.15	5.36	7.34	298
CCOC(=O)c1c(NCc2nc3ccccc3[nH]2)sc2c1CCCCC2	> 2500	> 2500	> 2500	> 2500	3	43	31	40	inactive	39	168.9	3.23	29.65	12.13	4.89	9.11	58
OC(Cn1cncn1)(Cn1cncn1)c1ccc(F)cc1F [FLUCONAZOLE]	–	–	–	> 2500	–	–	–	–	–	–	–	–	–	–	–	–	–
O=c1[nH]cc(F)c(=O)[nH]1 [FLUOROURACIL]	–	–	–	–	–	61	41	41.5	–	49	237.93	1.6	20.17	12.96	5.21	8.86	51
CC1=NN(Cc2nc3cc([N+](=O)[O-])ccc3[nH]2)C(=O)C1	> 2500	1250 (≈ 4.57 mM)	2500 (≈ 9.15 mM)	625 (≈ 2.29 mM)	3	265	200	281	–	–	–	–	–	–	–	–	–
COc1ccc2c(c1)CCC/C2=N\NCc1nc2ccccc2[nH]1	> 2500	> 2500	1250 (≈ 3.9 mM)	> 2500	<2	80	41	63	–	–	–	–	–	–	–	–	–
O=[N+]([O-])c1ccc2[nH]c(CNc3nc(-c4ccccc4)cs3)nc2c1	> 2500	> 2500	> 2500	1250 (≈ 3.56 mM)	6	226	198	254	–	–	–	–	–	–	–	–	–
NS(=O)(=O)c1nnc(NCc2nc3ccccc3[nH]2)s1	625 (≈ 2.01 mM)	> 2500	625 (≈ 2.01 mM)	> 2500	<2	162	156	228	Active	–	–	–	–	–	–	–	–
Cc1c(NCc2nc3ccccc3[nH]2)c(=O)n(-c2ccccc2)n1C	2500 (≈ 7.5 mM)	1250 (≈ 3.75 mM)	312 (≈ 0.937 mM)	625 (≈ 1.87 mM)	6	63	38	53	Active	–	–	–	–	–	–	–	–
CC[n+]1c(-c2ccccc2)c2cc(N)ccc2c2ccc(N)cc21	–	–	–	–	–	–	–	–	Active	–	–	–	–	–	–	–	–
Cc1c(NCc2nc3cc([N+](=O)[O-])ccc3[nH]2)c(=O)n(-c2ccccc2)n1C	2500 (≈ 6.61 mM)	1250 (≈ 3.3 mM)	625 (≈ 1.65 mM)	2500 (≈ 6.61 mM)	<2	93	44	78	–	–	–	–	–	–	–	–	–
NS(=O)(=O)c1nnc(NCc2nc3cc([N+](=O)[O-])ccc3[nH]2)s1	> 2500	> 2500	> 2500	> 2500	<2	184	176	230	–	–	–	–	–	–	–	–	–
COc1ccc2c(c1)CCC/C2=N\NCc1nc2cc([N+](=O)[O-])ccc2[nH]1	> 2500	> 2500	> 2500	2500 (≈ 6.84 mM)	<2	96	45	78	–	–	–	–	–	–	–	–	–
O=[N+]([O-])c1ccc2[nH]c(CNc3nc4ccc(F)cc4s3)nc2c1	> 2500	> 2500	> 2500	1250 (≈ 3.64 mM)	6	263	253	291	–	–	–	–	–	–	–	–	–
O=[N+]([O-])c1ccc2ncccc2c1NCc1nc2ccccc2[nH]1	625 (≈ 1.96 mM)	156 (≈ 0.489 mM)	1250 (≈ 3.91 mM)	1250 (≈ 3.91 mM)	8	259	204	237	Active	–	–	–	–	–	–	–	–
CC1=NN(Cc2nc3ccccc3[nH]2)C(=O)C1	> 2500	1250 (≈ 5.48 mM)	156 (≈ 0.685 mM)	312 (≈ 1.37 mM)	4	54	42	62	Active	31.5	110.34	4.16	45.38	11.47	4.55	11.26	246
Fc1ccc2nc(NCc3nc4ccccc4[nH]3)sc2c1	> 2500	> 2500	156 (≈ 0.524 mM)	1250 (≈ 4.19 mM)	11	233	238	242	Active	–	–	–	–	–	–	–	–
O=C1c2ccccc2C(=O)N1NCc1nc2ccccc2[nH]1	> 2500	> 2500	> 2500	1250 (≈ 4.28 mM)	4	32	31	37	Active	46.7	222.07	2.15	21.95	13.21	5.52	7.11	322
Oc1cc(O)c2c(c1)O[C@H](c1ccc(O)c(O)c1)[C@@H](O)C2 [CIANIDANOL]	–	–	–	–	2	–	–	–	–	–	–	–	–	–	–	–	–
